Data reported in patent US11903999B2, “Combination of AS1411 and SAPC-DOPS for the treatment of glioblastoma multiforme” (University of Cincinnati, priority 2017, dated 2024).

Legend:
U87-MG cells [1] = assay: Cell surface PS (Annexin V-FITC) and propidium iodide by flow cytometry; type: cell-based; conditions: 6 μM AS1411
Experimental: FIG. 3. […] Error bars show mean +/−SD with **p<0.02 by Student's t-test when compared to control (untreated) cells.
U87-MG cells were seeded onto standard 60 mm cell culture dishes at ˜50% confluency. After 24 hrs, 6 μM of AS1411 in DMEM was added to each dish at 24, 48, and 72 hour time points. Cells were then stained with Annexin V-FITC using a standard staining protocol and evaluated for surface PS levels using flow cytometry.

non-GBM tumor cell lines = conditions: cited from earlier work
U87-MG cells [2] = conditions: cited from earlier work
U87-MG cells [3] = assay: Methuosis-like vacuolization by microscopy; type: cell-based; conditions: 15 μM AS1411 for 72 hrs
Experimental: FIG. 5. A) AS1411 induces methuosis-like vacuolization in U87-MG Cells, untreated U87-MG cells; B) […] cells treated with 10 μM MIPP for 24 hrs; C) U87-MG cells treated with 15 μM AS1411 for 72 hrs. D) U87-MG cells treated with 15 μM AS1411 for 192 hrs. E) Quantification of number of cells with >5 vacuoles.
U87-MG cells were grown to approximately 50% confluency in standard flat bottom 6 well cell culture plates. The cells were then treated with either 10 μM MIPP (a compound previously shown to induce methuosis) or 15 μM AS1411 for 72 hrs. Photos were taken comparing the two treatment wells with untreated control cells, using a microscope with camera.

[4] = test system: Caspase-3 in U87-MG cells; assay: Caspase-3 levels as a measure of apoptosis (EnzCheck Caspase-3 Assay Kit); type: cell-based; conditions: 15 μM AS1411 for 72 hrs vs 100 μM TMZ for 48 hrs
Experimental: Caspase activity was measured with a […]. Caspase levels were normalized to total cellular protein with BCA protein assay. Error bars show mean +/−SD.
U87-MG cells were seeded onto standard 60 mm cell culture dishes at 50% confluency. After 24 hrs, 15 μM of AS1411 in DMEM and 100 μM of temozolomide (TMZ) in DMEM were added to each dish. Cells were harvested at 72 hrs and 48 hrs respectively and analyzed using the EnzCheck Caspase-3 Assay Kit from Molecular Probes utilizing the Z-DEVD-AMC substrate (incubated for 30 minutes). Fluorescence excitation/emission: 340/440 nm) was measured with a standard fluorometer.

Substance: 5′-d(GGTGGTGGTGGTTGTGGTGGTGGTGG)-3′ [AS1411]
- propidium iodide (PI) positive (dead) cells (U87-MG cells [1]): without increasing PI
- surface PS (Annexin V-FITC) (U87-MG cells [1]; 24, 48, 72 hrs): increases surface PS
- IC50 (non-GBM tumor cell lines): 1 µM
- IC50 (U87-MG cells [2]): 10 µM
- morphologic changes, vacuolization (U87-MG cells [3]): induces morphologic changes including vacuolization
- caspase activity [4]: does not increase caspase activity as much as the apoptotic drug TMZ
